Assay results taken from patent US7192746B2, “α-Isomaltosyltransferase, process for producing the same and use thereof” (Kabushiki Kaisha Hayashibara Seibutsu Kagaku Kenkyujo, priority 2000, dated 2007).

Columns and labels:
Format in all cases: biochemical
[1] = test system: α-isomaltosyl-transferring enzyme from Arthrobacter globiformis A19; test: Action on saccharides (substrates, TLC); set-up: key: −: there was found no substrate change before and after the enzymatic reaction; +: there were found both the reduction of substrate and the formation of cyclotetrasaccharide after the enzymatic reaction; conditions: partially purified enzyme, 2 units/g substrate, 2% (w/v) substrate, 30° C., pH 6.0, 24 hours
Description: (§1) To examine the saccharides in the supernatant, they were separated from the supernatant by silica gel thin-layer chromatography (abbreviated as “TLC” hereinafter) using, as a developer, a mixture solution of n-butanol, pyridine, and water (=6:4:1), and, as a thin-layer plate, “[…] 60”, an aluminum plate (20×20 cm) for TLC commercialized by […]. The coloration of both the separated total sugars by the sulfuric acid-methanol method and the reducing saccharides by the diphenylamine-aniline method detected a non-reducing saccharide at a position with an Rf value of about 0.31, which was positive on the former detection method but negative on the latter detection method.
(§2) It was tested whether saccharides can be used as substrates for the α-isomaltosyl-transferring enzyme. For the purpose, a solution of maltose, maltotriose, maltotetraose, maltopentaose, maltohexaose, maltoheptaose, isomaltose, isomaltotriose, panose, isomaltosylmaltose, isopanose, α,α-trehalose, kojibiose, nigerose, α,β-trehalose, cellobiose, gentibiose, maltitol, maltotriitol, lactose, sucrose, α-cyclodextrin, β-cyclodextrin, γ-cyclodextrin, soluble starch, pullulan, or dextran was prepared. To each of the above solutions was added two units/g substrate of a purified specimen of either α-isomaltosyl-transferring enzyme from Bacillus globisporus C9 obtained by the method in Experiment 4, Bacillus globisporus C11 obtained by the method in Experiment 7, Bacillus globisporus N75 obtained by the method in Experiment 11, or Arthrobacter ramosus S1 obtained by the method in Experiment 15, or a partially purified α-isomaltosyl-transferring enzyme from Arthrobacter globiformis A19 obtained by the method in Experiment 15. The resulting each solution was adjusted to give a substrate concentration of 2% (w/v) and incubated at 30° C. and pH 6.0 for 24 hours. The enzyme solutions before and after the enzymatic reactions were respectively analyzed on TLC as disclosed in Experiment 1 to confirm whether the enzymes acted on these substrates.

[2] = test system: α-isomaltosyl-transferring enzyme from Arthrobacter ramosus S1; test: Action on saccharides (substrates, TLC); set-up: key: −: there was found no substrate change before and after the enzymatic reaction; +: there were found both the reduction of substrate and the formation of cyclotetrasaccharide after the enzymatic reaction; conditions: 2 units/g substrate, 2% (w/v) substrate, 30° C., pH 6.0, 24 hours
Description: as §1, §2

[3] = test system: α-isomaltosyl-transferring enzyme from Bacillus globisporus C11; test: Action on saccharides (substrates, TLC); set-up: key: −: there was found no substrate change before and after the enzymatic reaction; +: there were found both the reduction of substrate and the formation of cyclotetrasaccharide after the enzymatic reaction; conditions: 2 units/g substrate, 2% (w/v) substrate, 30° C., pH 6.0, 24 hours
Description: as §1, §2

[4] = test system: α-isomaltosyl-transferring enzyme from Bacillus globisporus C9; test: Action on saccharides (substrates, TLC); set-up: key: −: there was found no substrate change before and after the enzymatic reaction; +: there were found both the reduction of substrate and the formation of cyclotetrasaccharide after the enzymatic reaction; conditions: 2 units/g substrate, 2% (w/v) substrate, 30° C., pH 6.0, 24 hours
Description: as §1, §2

[5] = test system: α-isomaltosyl-transferring enzyme from Bacillus globisporus N75; test: Action on saccharides (substrates, TLC); set-up: key: −: there was found no substrate change before and after the enzymatic reaction; +: there were found both the reduction of substrate and the formation of cyclotetrasaccharide after the enzymatic reaction; conditions: 2 units/g substrate, 2% (w/v) substrate, 30° C., pH 6.0, 24 hours
Description: as §1, §2

[6] = test system: α-isomaltosyl-transferring enzyme from Arthrobacter globiformis A19; test: Specificity to transferring acceptor; conditions: partially purified enzyme, panose as saccharide donor, 10 units/g substrate, 3.2% (w/v), 30° C., pH 6.0, 24 hours
Method in brief: (§3)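 Panose donor + test saccharide (equimolar-equal conc.), 3.2% (w/v) total, 10 units/g substrate enzyme; 30° C., pH 6.0, 24 h. GLC (FID) for mono/disaccharide acceptors, HPLC (RI) for tri- and larger. Scored +/−.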

[7] = test system: α-isomaltosyl-transferring enzyme from Arthrobacter ramosus S1; test: Specificity to transferring acceptor; conditions: panose as saccharide donor, 10 units/g substrate, 3.2% (w/v), 30° C., pH 6.0, 24 hours
Method in brief: as §3

[8] = test system: α-isomaltosyl-transferring enzyme from Bacillus globisporus C11; test: Specificity to transferring acceptor; conditions: panose as saccharide donor, 10 units/g substrate, 3.2% (w/v), 30° C., pH 6.0, 24 hours
Method in brief: as §3

[9] = test system: α-isomaltosyl-transferring enzyme from Bacillus globisporus C9; test: Specificity to transferring acceptor; conditions: panose as saccharide donor, 10 units/g substrate, 3.2% (w/v), 30° C., pH 6.0, 24 hours
Method in brief: as §3

[10] = test system: α-isomaltosyl-transferring enzyme from Bacillus globisporus N75; test: Specificity to transferring acceptor; conditions: panose as saccharide donor, 10 units/g substrate, 3.2% (w/v), 30° C., pH 6.0, 24 hours
Method in brief: as §3

SMILES | Enzymatic action for forming cyclotetrasaccharide, Enzyme of Strain A19 [1] | Enzymatic action for forming cyclotetrasaccharide, Enzyme of Strain S1 [2] | Enzymatic action for forming cyclotetrasaccharide, Enzyme of Strain C11 [3] | Enzymatic action for forming cyclotetrasaccharide, Enzyme of Strain C9 [4] | Enzymatic action for forming cyclotetrasaccharide, Enzyme of Strain N75 [5] | Product of transferring reaction, Enzyme of Stain A19 [6] | Product of transferring reaction, Enzyme of Strain S1 [7] | Product of transferring reaction, Enzyme of Strain C11 [8] | Product of transferring reaction, Enzyme of Strain C9 [9] | Product of transferring reaction, Enzyme of Strain N75 [10]
OC[C@H]1O[C@@H](O[C@H]2[C@H](O)[C@@H](O)C(O)O[C@@H]2CO)[C@H](O)[C@@H](O)[C@H]1O (stereo partly drawn) [Lactose, lactose] | − | − | − | − | − | + (a saccharide-transferred product was formed in an amount of over one percent but below 10% to the total sugars) | + (a saccharide-transferred product was formed in an amount of over one percent but below 10% to the total sugars) | + (a saccharide-transferred product was formed in an amount of over one percent but below 10% to the total sugars) | + (a saccharide-transferred product was formed in an amount of over one percent but below 10% to the total sugars) | + (a saccharide-transferred product was formed in an amount of over one percent but below 10% to the total sugars)
OC[C@H]1O[C@H](O[C@H]2[C@H](O)[C@@H](O)[C@H](O)O[C@@H]2CO)[C@H](O)[C@@H](O)[C@@H]1O [Maltose, maltose] | − | − | − | − | − | + (a saccharide-transferred product was formed in an amount of over one percent but below 10% to the total sugars) | + (a saccharide-transferred product was formed in an amount of over one percent but below 10% to the total sugars) | + (a saccharide-transferred product was formed in an amount of over one percent but below 10% to the total sugars) | + (a saccharide-transferred product was formed in an amount of over one percent but below 10% to the total sugars) | + (a saccharide-transferred product was formed in an amount of over one percent but below 10% to the total sugars)
OC[C@H]1O[C@H](O[C@H]2[C@H](O)[C@@H](O)[C@@H](O[C@H]3[C@H](O)[C@@H](O)[C@@H](O[C@H]4[C@H](O)[C@@H](O)C(O)O[C@@H]4CO)O[C@@H]3CO)O[C@@H]2CO)[C@H](O)[C@@H](O)[C@@H]1O (stereo partly drawn) [Maltotetraose, maltotetraose] | − | − | − | − | − | + (a saccharide-transferred product was formed in an amount of over one percent but below 10% to the total sugars) | + (a saccharide-transferred product was formed in an amount of over one percent but below 10% to the total sugars) | + (a saccharide-transferred product was formed in an amount of over one percent but below 10% to the total sugars) | + (a saccharide-transferred product was formed in an amount of over one percent but below 10% to the total sugars) | + (a saccharide-transferred product was formed in an amount of over one percent but below 10% to the total sugars)
